Results as given in patent US11851426B2, “Bicyclic amines as CDK2 inhibitors” (Incyte Corporation, priority 2019, dated 2023).

molecular target: CDK2/Cyclin E1 (Homo sapiens (Human), UniProt P24941); experiment: CDK2/Cyclin E1 HTRF enzyme activity assay; type: biochemical; settings: 1 mM ATP; CDK2/Cyclin E1 0.25 nM; 60 minutes at room temperature
Protocol: Example A. CDK2/Cyclin E1 HTRF Enzyme Activity Assay
CDK2/Cyclin E1 enzyme activity assays utilize full-length human CDK2 co-expressed as N-terminal GST-tagged protein with FLAG-Cyclin E1 in a baculovirus expression system (Carna Product Number 04-165). Assays were conducted in white 384-well polystyrene plates in a final reaction volume of 8 μL. CDK2/Cyclin E1 (0.25 nM) was incubated with the compounds of the Examples (40 nL serially diluted in DMSO) in the presence of ATP (50 μM or 1 mM) and 50 nM ULight™-labeled eIF4E-binding protein 1 (THR37/46) peptide (PerkinElmer) in assay buffer (containing 50 mM HEPES pH 7.5, 1 mM EGTA, 10 mM MgCl2, 2 mM DTT, 0.05 mg/mL BSA, and 0.01% Tween 20) for 60 minutes at room temperature. The reactions were stopped by the addition of EDTA and Europium-labeled anti-phospho-4E-BP1 antibody (PerkinElmer), for a final concentration of 15 mM and 1.5 nM, respectively. HTRF signals were read after 1 hour at room temperature on a PHERAstar FS plate reader (BMG Labtech). Data was analyzed with IDBS XLFit and GraphPad Prism 5.0 software using a three or four parameter dose response curve to determine IC50 for each compound.

IC50, ≤ 20 nM:
CC(C)Oc1c(-c2cn[nH]c2)ncn2nc(N[C@H]3CCN(S(=O)(=O)CCCN(C)C)C[C@H]3C)nc12 [Example 56, N-((3R,4S)-1-((3-(Dimethylamino)propyl)sulfonyl)-3-methylpiperidin-4-yl)-8-isopropoxy-7-(1H-pyrazol-4-yl)-[1,2,4]triazolo[1,5-c]pyrimidin-2-amine]
CC(C)Oc1c(-c2cn[nH]c2)ncn2nc(N[C@H]3CCN(S(=O)(=O)CCCN(C)C(C)C)C[C@H]3C)nc12 [Example 57, 8-Isopropoxy-N-((3R,4S)-1-((3-(isopropyl(methyl)amino)propyl)sulfonyl)-3-methylpiperidin-4-yl)-7-(1H-pyrazol-4-yl)-[1,2,4]triazolo[1,5-c]pyrimidin-2-amine]
CC(C)Oc1c(-c2cn[nH]c2)ncn2nc(N[C@H]3CCN(S(=O)(=O)CCCN4CCCCC4)C[C@H]3C)nc12 [Example 58, 8-Isopropoxy-N-((3R,4S)-3-methyl-1-((3-(piperidin-1-yl)propyl)sulfonyl)piperidin-4-yl)-7-(1H-pyrazol-4-yl)-[1,2,4]triazolo[1,5-c]pyrimidin-2-amine]
CC(C)Oc1c(-c2cn[nH]c2)ncn2nc(N[C@H]3CCN(S(=O)(=O)CCCN4CCCC4)C[C@H]3C)nc12 [Example 59, 8-Isopropoxy-N-((3R,4S)-3-methyl-1-((3-(pyrrolidin-1-yl)propyl)sulfonyl)piperidin-4-yl)-7-(1H-pyrazol-4-yl)-[1,2,4]triazolo[1,5-c]pyrimidin-2-amine]
CCN(CC)CCCS(=O)(=O)N1CC[C@H](Nc2nc3c(OC(C)C)c(-c4cn[nH]c4)ncn3n2)[C@H](C)C1 [Example 60, N-((3R,4S)-1-((3-(Diethylamino)propyl)sulfonyl)-3-methylpiperidin-4-yl)-8-isopropoxy-7-(1H-pyrazol-4-yl)-[1,2,4]triazolo[1,5-c]pyrimidin-2-amine]
CC(C)Oc1c(-c2cn[nH]c2)ncn2nc(N[C@H]3CCN(S(=O)(=O)CCCN4CCN(C)CC4)C[C@H]3C)nc12 [Example 61, 8-Isopropoxy-N-((3R,4S)-3-methyl-1-((3-(4-methylpiperazin-1-yl)propyl)sulfonyl)piperidin-4-yl)-7-(1H-pyrazol-4-yl)-[1,2,4]triazolo[1,5-c]pyrimidin-2-amine]
CCN1CCN(CCCS(=O)(=O)N2CC[C@H](Nc3nc4c(OC(C)C)c(-c5cn[nH]c5)ncn4n3)[C@H](C)C2)CC1 [Example 62, N-((3R,4S)-1-((3-(4-Ethylpiperazin-1-yl)propyl)sulfonyl)-3-methylpiperidin-4-yl)-8-isopropoxy-7-(1H-pyrazol-4-yl)-[1,2,4]triazolo[1,5-c]pyrimidin-2-amine]
CC(C)Oc1c(-c2cn[nH]c2)ncn2nc(N[C@H]3CCN(S(=O)(=O)CCCCN4CCOCC4)C[C@H]3C)nc12 [Example 63, 8-Isopropoxy-N-((3R,4S)-3-methyl-1-((4-morpholinobutyl)sulfonyl)piperidin-4-yl)-7-(1H-pyrazol-4-yl)-[1,2,4]triazolo[1,5-c]pyrimidin-2-amine]
CC(C)Oc1c(-c2cn[nH]c2)ncn2nc(N[C@H]3CCN(S(=O)(=O)CCCCNCC(F)F)C[C@H]3C)nc12 [Example 64, N-((3R,4S)-1-((4-((2,2-Difluoroethyl)amino)butyl)sulfonyl)-3-methylpiperidin-4-yl)-8-isopropoxy-7-(1H-pyrazol-4-yl)-[1,2,4]triazolo[1,5-c]pyrimidin-2-amine]
CCN(C)CCCCS(=O)(=O)N1CC[C@H](Nc2nc3c(OC(C)C)c(-c4cn[nH]c4)ncn3n2)[C@H](C)C1 [Example 65, N-((3R,4S)-1-((4-(Ethyl(methyl)amino)butyl)sulfonyl)-3-methylpiperidin-4-yl)-8-isopropoxy-7-(1H-pyrazol-4-yl)-[1,2,4]triazolo[1,5-c]pyrimidin-2-amine]
CC(C)Oc1c(-c2cn[nH]c2)ncn2nc(N[C@H]3CCN(S(=O)(=O)CCCCN(C)C)C[C@H]3C)nc12 [Example 66]
CC(C)Oc1c(-c2cn[nH]c2)ncn2nc(N[C@H]3CCN(S(=O)(=O)CCCCN4CC[C@@H](C(F)F)C4)C[C@H]3C)nc12 [Example 67, N-((3R,4S)-1-((4-((R)-3-(Difluoromethyl)pyrrolidin-1-yl)butyl)sulfonyl)-3-methylpiperidin-4-yl)-8-isopropoxy-7-(1H-pyrazol-4-yl)-[1,2,4]triazolo[1,5-c]pyrimidin-2-amine]
CC(C)Oc1c(-c2cn[nH]c2)ccc2nc(N[C@H]3CCN(S(C)(=O)=O)C[C@H]3C)nn12 [Example 68, 5-Isopropoxy-N-((3R,4S)-3-methyl-1-(methylsulfonyl)piperidin-4-yl)-6-(1H-pyrazol-4-yl)-[1,2,4]triazolo[1,5-a]pyridin-2-amine]
C[C@@H]1CN(S(C)(=O)=O)CC[C@@H]1Nc1nc2ccc(-c3cn[nH]c3)c(OC3CCC3)n2n1 [Example 69, 5-Cyclobutoxy-N-((3R,4S)-3-methyl-1-(methylsulfonyl)piperidin-4-yl)-6-(1H-pyrazol-4-yl)-[1,2,4]triazolo[1,5-a]pyridin-2-amine]
CC(C)COc1c(-c2cn[nH]c2)ccc2nc(N[C@H]3CCN(S(C)(=O)=O)C[C@H]3C)nn12 [Example 70, 5-Isobutoxy-N-((3R,4S)-3-methyl-1-(methylsulfonyl)piperidin-4-yl)-6-(1H-pyrazol-4-yl)-[1,2,4]triazolo[1,5-a]pyridin-2-amine]
CCCOc1c(-c2cn[nH]c2)ccc2nc(N[C@H]3CCN(S(C)(=O)=O)C[C@H]3C)nn12 [Example 71, N-((3R,4S)-3-Methyl-1-(methylsulfonyl)piperidin-4-yl)-5-propoxy-6-(1H-pyrazol-4-yl)-[1,2,4]triazolo[1,5-a]pyridin-2-amine]
C[C@@H]1CN(S(C)(=O)=O)CC[C@@H]1Nc1nc2ccc(-c3cn[nH]c3)c(OCC(F)F)n2n1 [Example 72, 5-(2,2-Difluoroethoxy)-N-((3R,4S)-3-methyl-1-(methylsulfonyl)piperidin-4-yl)-6-(1H-pyrazol-4-yl)-[1,2,4]triazolo[1,5-a]pyridin-2-amine]
C[C@@H]1CN(S(C)(=O)=O)CC[C@@H]1Nc1nc2ccc(-c3cn[nH]c3)c(OCC(F)(F)C(F)F)n2n1 [Example 73, N-((3R,4S)-3-Methyl-1-(methylsulfonyl)piperidin-4-yl)-6-(1H-pyrazol-4-yl)-5-(2,2,3,3-tetrafluoropropoxy)-[1,2,4]triazolo[1,5-a]pyridin-2-amine]
C[C@@H]1CN(S(C)(=O)=O)CC[C@@H]1Nc1nc2ccc(-c3cn[nH]c3)c(OC3CC3)n2n1 [Example 74, 5-Cyclopropoxy-N-((3R,4S)-3-methyl-1-(methylsulfonyl)piperidin-4-yl)-6-(1H-pyrazol-4-yl)-[1,2,4]triazolo[1,5-a]pyridin-2-amine]
C[C@@H]1CN(S(C)(=O)=O)CC[C@@H]1Nc1nc2ccc(-c3cn[nH]c3)c(OC3CCC(F)(F)C3)n2n1 (stereo partly drawn) [Example 75, 5-((3,3-Difluorocyclopentyl)oxy)-N-((3R,4S)-3-methyl-1-(methylsulfonyl)piperidin-4-yl)-6-(1H-pyrazol-4-yl)-[1,2,4]triazolo[1,5-a]pyridin-2-amine]
C[C@@H]1CN(S(C)(=O)=O)CC[C@@H]1Nc1nc2ccc(-c3cn[nH]c3)c(OCC3CCC3)n2n1 [Example 76, 5-(Cyclobutylmethoxy)-N-((3R,4S)-3-methyl-1-(methylsulfonyl)piperidin-4-yl)-6-(1H-pyrazol-4-yl)-[1,2,4]triazolo[1,5-a]pyridin-2-amine]
C[C@@H]1CN(S(C)(=O)=O)CC[C@@H]1Nc1nc2ccc(-c3cn[nH]c3)c(OCC3CCCC3)n2n1 [Example 77, 5-(Cyclopentylmethoxy)-N-((3R,4S)-3-methyl-1-(methylsulfonyl)piperidin-4-yl)-6-(1H-pyrazol-4-yl)-[1,2,4]triazolo[1,5-a]pyridin-2-amine]
CCCOc1c(-c2cn[nH]c2)ccc2nc(NC3CCN(S(C)(=O)=O)CC3)nn12 [Example 78, N-(1-(Methylsulfonyl)piperidin-4-yl)-5-propoxy-6-(1H-pyrazol-4-yl)-[1,2,4]triazolo[1,5-a]pyridin-2-amine]
CC(C)COc1c(-c2cn[nH]c2)ccc2nc(NC3CCN(S(C)(=O)=O)CC3)nn12 [Example 79, 5-Isobutoxy-N-(1-(methylsulfonyl)piperidin-4-yl)-6-(1H-pyrazol-4-yl)-[1,2,4]triazolo[1,5-a]pyridin-2-amine]
CS(=O)(=O)N1CCC(Nc2nc3ccc(-c4cn[nH]c4)c(OCC(F)F)n3n2)CC1 [Example 80, 5-(2,2-Difluoroethoxy)-N-(1-(methylsulfonyl)piperidin-4-yl)-6-(1H-pyrazol-4-yl)-[1,2,4]triazolo[1,5-a]pyridin-2-amine]
